# From patent publication US8969325B2, “TRPV1 antagonists” (AbbVie Inc., priority 2011, dated 2015)
# Columns and labels:
# human TRPV1 [1] = molecular target: T1, human TRPV1 (Homo sapiens (Human), UniProt Q8NER1); assay: Capsaicin Activation Assay (intracellular Ca2+, FLIPR); format: cell-based; conditions: recombinant HEK293 cells expressing hTRPV1, 50 nM capsaicin
# How it was run: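 Ca2+ fluorescence was recorded by FLIPR every 1 to 5 seconds in HEK293 cells, clonally selected for stable human TRPV1 expression and plated one day ahead. Test compounds came as serial dilutions of 10 mM DMSO stocks.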
# human TRPV1 [2] = molecular target: T1, human TRPV1; assay: Acid Activation Assay (pH 5.0, intracellular Ca2+, FLIPR); format: cell-based; conditions: percentage of the maximal pH 5.0-induced response remaining; recombinant HEK293 hTRPV1 cells; maximum concentration tested 37.5 μM
# How it was run: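 Readout: peak [Ca2+]i fluorescence over baseline on FLIPR, expressed as percentage remaining of the maximal pH 5.0-evoked signal. Stable hTRPV1-HEK293 cells with Calcium-4 dye received compound (12 half-log concentrations, maximum 37.5 μM) 3 min before acidic pH 5.0 buffer.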
# rats [3] = assay: Rat acute capsaicin-induced flinching behavior; format: in vivo; conditions: 1 h, oral dose given as 100 nmol/kg, capsaicin 2.5 μg into hind paw one hour after compound, five minute observation, relative to control-treated animals, read-out: % effect (percent reduction in the number of flinching behaviors)
# Protocol: Rats were placed in individual observation cages. Following an acclimation period of 30 minutes, selected compounds were administered orally at a dose of 100 nmol/kg in a vehicle (10% ethanol/20% Tween 80/70% polyethylene glycol-400) at a volume of 2 mL/kg. One hour after administration of the compound, 2.5 μg of capsaicin in a 10 μL solution of 10% ethanol/90% hydroxypropyl-β-cyclodextrin was injected subcutaneously into the dorsal aspect of the right hind paw. The observation cage was then suspended above mirrors in order to facilitate observation. […] The number of flinching behaviors of the injured paw was recorded during the five minute observation period (Gilchrist, H. D.; Allard, B. L.; Simone, D. A.; Enhanced withdrawal responses to heat and mechanical stimuli following intraplantar injection of capsaicin in rats. Pain, 1996, 67, 179-188). The percent reduction in the number of flinching behaviors produced from oral administration of the test compounds relative to control-treated animals (% effect) is reported in Table 2.
# rats [4] = assay: Sodium iodoacetate-induced knee joint osteoarthritic pain model (hind limb grip force); format: in vivo; conditions: rat, po, single acute dose, 1 hour after administration, 20 days after sodium iodoacetate, read-out: % effect (% return to normalcy of hind limb grip force)
# Protocol: Unilateral knee joint osteoarthritis was induced in the rats by a single intra-articular (i.a.) injection of sodium iodoacetate (3 mg in 0.05 mL sterile isotonic saline) into the right knee joint cavity under light isoflurane anesthesia using a 26 G needle. […] Pain behavioral assessment of hind limb grip force was conducted by recording the maximum compressive force exerted on the hind limb strain gauge setup, in a commercially available grip force measurement system (Columbus Instruments, Columbus, Ohio). The grip force data was converted to a maximum hindlimb cumulative compressive force (CFmax) (gram force)/kg body weight for each animal. The analgesic effects of test compounds were determined 20 days following the i.a. injection of sodium iodoacetate. The vehicle control group for each compound being tested was assigned 0% whereas the age matched naïve group was assigned as being 100% (normal). The % effect for each dose group was then expressed as % return to normalcy compared to the naïve group. Test compounds were administered orally in 10% ethanol/20% Tween 80/70% polyethylene glycol-400 vehicle at a volume of 2 mL/kg. The assessment of the analgesic effects of test compounds was made 1 hour following oral administration. The assessment of the analgesic effects of test compounds can be made following a single dose or following repeated administration wherein the frequency of dosing is 1 to 2 times daily. The duration of such repeated daily dosing may last for any time greater than one day. A typical duration of repeated daily dosing is about 5 days to about 12 days.
# T1 sequence (Q8NER1 whole entry): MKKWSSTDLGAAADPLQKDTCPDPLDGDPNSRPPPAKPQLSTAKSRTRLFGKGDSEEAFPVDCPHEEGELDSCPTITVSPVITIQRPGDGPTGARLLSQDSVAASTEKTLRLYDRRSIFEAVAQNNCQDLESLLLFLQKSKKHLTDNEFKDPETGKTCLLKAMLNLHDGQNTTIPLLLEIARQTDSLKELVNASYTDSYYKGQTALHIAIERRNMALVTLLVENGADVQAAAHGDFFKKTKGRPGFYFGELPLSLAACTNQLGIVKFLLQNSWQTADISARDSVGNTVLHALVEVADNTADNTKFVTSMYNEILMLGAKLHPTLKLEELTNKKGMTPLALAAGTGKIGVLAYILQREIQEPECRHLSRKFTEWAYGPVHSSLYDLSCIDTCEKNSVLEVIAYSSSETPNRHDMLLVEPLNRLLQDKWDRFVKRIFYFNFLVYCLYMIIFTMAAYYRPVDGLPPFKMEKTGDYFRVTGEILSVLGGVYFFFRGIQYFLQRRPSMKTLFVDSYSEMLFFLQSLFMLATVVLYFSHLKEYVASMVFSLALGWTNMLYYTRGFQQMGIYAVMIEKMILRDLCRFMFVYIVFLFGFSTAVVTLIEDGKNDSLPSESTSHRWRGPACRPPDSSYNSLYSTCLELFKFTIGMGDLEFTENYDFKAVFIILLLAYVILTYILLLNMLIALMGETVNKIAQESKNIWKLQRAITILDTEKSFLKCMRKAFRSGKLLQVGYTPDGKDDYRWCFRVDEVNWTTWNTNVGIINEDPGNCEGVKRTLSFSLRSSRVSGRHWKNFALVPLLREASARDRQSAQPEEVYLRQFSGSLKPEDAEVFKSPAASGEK
SMILES,IC50 (human TRPV1 [1]),human TRPV1 H^+ (max % remain) (human TRPV1 [2]),inhibition in vivo at 0.1 µmol/kg (rats [3]),inhibition in vivo at 10 mg/kg (rats [4]),inhibition in vivo at 12 mg/kg (rats [4]; 12 mg/kg),inhibition in vivo at 14 mg/kg (rats [4]; 14 mg/kg)
"O=C1CCc2ccc(NC(=O)N[C@@H]3CCc4cc(C(F)(F)F)ccc43)cc2N1 [Example 35, 1-(2-oxo-1,2,3,4-tetrahydroquinolin-7-yl)-3-[(1R)-5-(trifluoromethyl)-2,3-dihydro-1H-inden-1-yl]urea]",4 nM,38%,–,42%,–,–
"CC1(C)C[C@@H](NC(=O)Nc2ccc3c(c2)NC(=O)CC3)c2ccc(C(F)(F)F)cc2O1 [Example 32, 1-[(4R)-2,2-dimethyl-7-(trifluoromethyl)-3,4-dihydro-2H-chromen-4-yl]-3-(2-oxo-1,2,3,4-tetrahydroquinolin-7-yl)urea]",36 nM,37%,–,22%,–,–
"CN1C(=O)NCc2c(NC(=O)N[C@@H]3C[C@@](C)(C(F)F)Oc4ccccc43)cccc21 [Example 13, 1-[(2S,4R)-2-(difluoromethyl)-2-methyl-3,4-dihydro-2H-chromen-4-yl]-3-(1-methyl-2-oxo-1,2,3,4-tetrahydroquinazolin-5-yl)urea]",53 nM,41%,–,–,63%,–
"Cn1c(=O)ccc2c(NC(=O)N[C@@H]3CC(C)(C)Oc4cc(F)ccc43)cccc21 [Example 19, 1-[(4R)-7-fluoro-2,2-dimethyl-3,4-dihydro-2H-chromen-4-yl]-3-(1-methyl-2-oxo-1,2-dihydroquinolin-5-yl)urea]",–,38%,90%,–,–,–
"Cn1c(=O)ccc2c(NC(=O)N[C@@H]3CC(C)(C)Oc4ccc(F)cc43)cccc21 [Example 24, 1-[(4R)-6-fluoro-2,2-dimethyl-3,4-dihydro-2H-chromen-4-yl]-3-(1-methyl-2-oxo-1,2-dihydroquinolin-5-yl)urea]",21 nM,60%,58%,–,–,–
"Cn1c(=O)ccc2c(NC(=O)N[C@@H]3CC(CF)(CF)Oc4cc(F)ccc43)cccc21 [Example 27, 1-[(4R)-7-fluoro-2,2-bis(fluoromethyl)-3,4-dihydro-2H-chromen-4-yl]-3-(1-methyl-2-oxo-1,2-dihydroquinolin-5-yl)urea]",21 nM,42%,33%,–,–,–
"CN1C(=O)NCc2c(NC(=O)N[C@@H]3CC(CF)(CF)Oc4cc(Cl)ccc43)cccc21 [Example 2, 1-[(4R)-7-chloro-2,2-bis(fluoromethyl)-3,4-dihydro-2H-chromen-4-yl]-3-(1-methyl-2-oxo-1,2,3,4-tetrahydroquinazolin-5-yl)urea]",36 nM,21%,–,–,–,36%
"C[C@]1(C(F)(F)F)C[C@@H](NC(=O)Nc2ccc3c(c2)NC(=O)CC3)c2ccccc2O1 [Example 34, 1-[(2R,4R)-2-methyl-2-(trifluoromethyl)-3,4-dihydro-2H-chromen-4-yl]-3-(2-oxo-1,2,3,4-tetrahydroquinolin-7-yl)urea]",7 nM,34%,–,46%,–,–
"CN1Cc2ccc(NC(=O)N[C@@H]3CCc4cc(Cl)ccc43)cc2NC1=O [Example 17, 1-[(1R)-5-chloro-2,3-dihydro-1H-inden-1-yl]-3-(3-methyl-2-oxo-1,2,3,4-tetrahydroquinazolin-7-yl)urea]",70 nM,54%,83%,–,–,–
"Cn1c(=O)ccc2c(NC(=O)N[C@@H]3C[C@](C)(C(F)F)Oc4ccccc43)cccc21 [Example 28, 1-[(2R,4R)-2-(difluoromethyl)-2-methyl-3,4-dihydro-2H-chromen-4-yl]-3-(1-methyl-2-oxo-1,2-dihydroquinolin-5-yl)urea]",12 nM,53%,81%,–,–,–
"O=C1CCc2ccc(NC(=O)N[C@@H]3CC(CF)(CF)Oc4cc(Cl)ccc43)cc2N1 [Example 31, 1-[(4R)-7-chloro-2,2-bis(fluoromethyl)-3,4-dihydro-2H-chromen-4-yl]-3-(2-oxo-1,2,3,4-tetrahydroquinolin-7-yl)urea]",–,36%,–,24%,–,–

# More lines, main results first:
IC50 (human TRPV1 [1]),human TRPV1 H^+ (max % remain) (human TRPV1 [2]),SMILES,inhibition in vivo at 0.1 µmol/kg (rats [3]),inhibition in vivo at 10 mg/kg (rats [4]),inhibition in vivo at 12 mg/kg (rats [4]; 12 mg/kg),inhibition in vivo at 14 mg/kg (rats [4]; 14 mg/kg)
1600 nM,39%,"CC1(C)C[C@@H](NC(=O)Nc2ccc3c(c2)NC(=O)CC3)c2ccc(F)cc2O1 [Example 221, 1-[(4R)-7-fluoro-2,2-dimethyl-3,4-dihydro-2H-chromen-4-yl]-3-(2-oxo-1,2,3,4-tetrahydroquinolin-7-yl)urea]",53%,–,–,–
19 nM,96%,"O=C1COc2ccc(NC(=O)N[C@@H]3CC(CF)(CF)Oc4cc(C(F)(F)F)ccc43)cc2N1 [Example 324, 1-[(4R)-2,2-bis(fluoromethyl)-7-(trifluoromethyl)-3,4-dihydro-2H-chromen-4-yl]-3-(3-oxo-3,4-dihydro-2H-1,4-benzoxazin-6-yl)urea]",–,67%,–,–
21 nM,87%,"C[C@]1(C(F)F)C[C@@H](NC(=O)Nc2ccc3c(c2)NC(=O)CO3)c2ccc(Cl)cc2O1 [Example 321, 1-[(2R,4R)-7-chloro-2-(difluoromethyl)-2-methyl-3,4-dihydro-2H-chromen-4-yl]-3-(3-oxo-3,4-dihydro-2H-1,4-benzoxazin-6-yl)urea]",–,31%,–,–
78 nM,26%,"O=C1CCc2ccc(NC(=O)N[C@@H]3CCc4cc(Cl)ccc43)cc2N1 [Example 251, 1-[(1R)-5-chloro-2,3-dihydro-1H-inden-1-yl]-3-(2-oxo-1,2,3,4-tetrahydroquinolin-7-yl)urea]",–,38%,–,–
34 nM,66%,"CN1C(=O)CCc2ccc(NC(=O)N[C@@H]3CCc4cc(C(F)(F)F)ccc43)cc21 [Example 36, 1-(1-methyl-2-oxo-1,2,3,4-tetrahydroquinolin-7-yl)-3-[(1R)-5-(trifluoromethyl)-2,3-dihydro-1H-inden-1-yl]urea]",60%,–,–,–
32 nM,30%,"CCC1(CC)C[C@@H](NC(=O)Nc2ccc3c(c2)NC(=O)CC3)c2cccc(F)c2O1 [Example 222, 1-[(4R)-2,2-diethyl-8-fluoro-3,4-dihydro-2H-chromen-4-yl]-3-(2-oxo-1,2,3,4-tetrahydroquinolin-7-yl)urea]",–,26%,–,–
14 nM,34%,"CC1(C)C[C@@H](NC(=O)Nc2ccc3c(c2)NC(=O)CC3)c2ccc(Cl)c(F)c2O1 [Example 39, 1-[(4R)-7-chloro-8-fluoro-2,2-dimethyl-3,4-dihydro-2H-chromen-4-yl]-3-(2-oxo-1,2,3,4-tetrahydroquinolin-7-yl)urea]",–,50%,–,–
130 nM,54%,"C[C@]1(CF)C[C@@H](NC(=O)Nc2ccc3c(c2)NC(=O)CC3)c2ccc(Cl)cc2O1 [Example 241, 1-[(2R,4R)-7-chloro-2-(fluoromethyl)-2-methyl-3,4-dihydro-2H-chromen-4-yl]-3-(2-oxo-1,2,3,4-tetrahydroquinolin-7-yl)urea]",53%,–,–,–
20 nM,5%,"CN1C(=O)CCc2ccc(NC(=O)N[C@@H]3CC(CF)(CF)Oc4cc(Cl)ccc43)cc21 [Example 255, 1-[(4R)-7-chloro-2,2-bis(fluoromethyl)-3,4-dihydro-2H-chromen-4-yl]-3-(1-methyl-2-oxo-1,2,3,4-tetrahydroquinolin-7-yl)urea]",–,–,–,–
